One data set has as its target SRC (Homo sapiens, UniProt P12931). The experiment in a line: biochemical. An excerpt: (§1) An ELISA-based assay was used in which the phosphorylation of an oligopeptide substrate was detected by an HRP-conjugated anti-p-Tyr (PY20) probe.
A further data set has as its target T1, TEC (Homo sapiens, UniProt P42680).
T1 construct: purchased Carna Biosciences (Kobe, Japan), QuickScout service
T1 sequence (P42680 1-631): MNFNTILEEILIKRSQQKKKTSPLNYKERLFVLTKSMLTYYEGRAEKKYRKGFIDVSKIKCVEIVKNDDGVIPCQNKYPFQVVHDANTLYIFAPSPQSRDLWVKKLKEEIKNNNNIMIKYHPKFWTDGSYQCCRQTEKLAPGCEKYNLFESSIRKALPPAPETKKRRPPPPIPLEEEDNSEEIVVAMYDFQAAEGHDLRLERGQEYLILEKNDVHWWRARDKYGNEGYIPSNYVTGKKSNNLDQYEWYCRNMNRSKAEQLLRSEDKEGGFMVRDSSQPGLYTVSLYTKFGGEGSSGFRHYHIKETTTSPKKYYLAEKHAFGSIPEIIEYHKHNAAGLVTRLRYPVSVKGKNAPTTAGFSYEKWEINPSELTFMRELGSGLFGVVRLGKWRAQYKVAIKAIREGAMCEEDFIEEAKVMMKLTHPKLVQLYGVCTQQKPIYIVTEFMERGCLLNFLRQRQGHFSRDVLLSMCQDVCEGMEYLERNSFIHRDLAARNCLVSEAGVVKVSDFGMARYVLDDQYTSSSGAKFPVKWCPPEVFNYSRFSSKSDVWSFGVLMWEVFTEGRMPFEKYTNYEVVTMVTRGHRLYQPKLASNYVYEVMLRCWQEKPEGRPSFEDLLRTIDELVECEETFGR
The experiment in a line: QuickScout ELISA kinase panel. The format is biochemical. An excerpt: (§2) . […] An ELISA-based assay was used in which the phosphorylation of an oligopeptide substrate was detected by an HRP-conjugated anti-p-Tyr (PY20) probe. […]. The data appears in Table 2 in Example 3.
For orientation: ELISA stands for enzyme-linked immunosorbent assay.

For another data set, the target named is T2, MET (Homo sapiens, UniProt P08581).
T2 construct: purchased Carna Biosciences (QuickScout service)
The experiment in a line: QuickScout ELISA kinase panel. The format is biochemical.
Excerpt: as §2

The next data set deals with T3, PDGFR— (Homo sapiens, UniProt P16234).
T3 construct: purchased Carna Biosciences (Kobe, Japan), QuickScout service
Put plainly: QuickScout ELISA kinase panel. The format is biochemical.
Excerpt: as §2

The target in the next data set is T4, FLT3 (Homo sapiens, UniProt P36888).
T4 construct: purchased Carna Biosciences (Kobe, Japan), QuickScout service
Put plainly: QuickScout ELISA kinase panel. The format is biochemical.
Excerpt: as §2

For a further data set, the target named is T5, JAK3 (Homo sapiens, UniProt P52333).
T5 construct: purchased Carna Biosciences (QuickScout service)
Put plainly: QuickScout ELISA kinase panel. The format is biochemical.
Excerpt: as §2

The target of a further data set is T6, ACK (Homo sapiens, UniProt Q07912).
T6 construct: purchased Carna Biosciences (QuickScout service)
Put plainly: QuickScout ELISA kinase panel. The format is biochemical.
Excerpt: as §2

In a further data set the target is T7, EphA2 (Homo sapiens, UniProt P29317).
T7 construct: purchased Carna Biosciences (QuickScout service)
Put plainly: QuickScout ELISA kinase panel. Format: biochemical.
Excerpt: as §2

Another data set addresses T8, CSK (Homo sapiens, UniProt P41240).
T8 construct: purchased Carna Biosciences (QuickScout service)
The experiment in a line: QuickScout ELISA kinase panel. Format: biochemical.
Excerpt: as §2

The target of a further data set is T9, EphB4 (Homo sapiens, UniProt P54760).
T9 construct: purchased Carna Biosciences (QuickScout service)
The experiment in a line: QuickScout ELISA kinase panel. The format is biochemical.
Excerpt: as §2

The next data set deals with T10, TYRO3 (Homo sapiens, UniProt Q06418).
T10 construct: purchased Carna Biosciences (QuickScout service)
Put plainly: QuickScout ELISA kinase panel. The format is biochemical.
Excerpt: as §2

The subject of data set [1] is H1975 and H1975-DR lung cancer xenografts. Put plainly: microPET competitive inhibition of tracer uptake by unlabeled Dasatinib. The format is in vivo, SCID mouse.
Another data set concerns the target ABL (Homo sapiens, UniProt P00519). Put plainly: QuickScout ELISA kinase panel. The note with it: Table 3. The format is biochemical. Also noted: purchased Carna Biosciences (QuickScout service).
Excerpt: as §1

The target of a further data set is T11, EGFR (Homo sapiens, UniProt P00533).
T11 construct: purchased Carna Biosciences (QuickScout service)
The experiment in a line: QuickScout ELISA kinase panel. The format is biochemical. The settings on record: Table 3.
Excerpt: as §1

A further data set deals with T12, KIT (Homo sapiens, UniProt P10721).
T12 construct: purchased Carna Biosciences (Kobe, Japan), QuickScout service
Put plainly: QuickScout ELISA kinase panel. The note with it: Table 3. Format: biochemical.
Excerpt: as §1

A further data set addresses T13, FGFR1 (Homo sapiens, UniProt P11362).
T13 construct: purchased Carna Biosciences (QuickScout service)
The experiment in a line: QuickScout ELISA kinase panel. Format: biochemical. The note with it: Table 3.
Excerpt: as §1

A short description of data set [2]: In vivo metabolism in mice (blood/plasma radio-HPLC). The settings on record: for Peak 3 [18F]-5 (16.9 min) % Radioactivity, parent: plasma. Here is the method: Mice were injected i.v. with [^18F]-5 in the tail vein and sacrificed using carbon dioxide at 30, 60 and 120 min post injection. Each group contained three mice. Immediately after sacrifice, about 0.5 ml of blood was collected by cardiac puncture and deposited in a 1.5 ml Eppendorf tube. Disodium EDTA (2.5 mg) was used as anticoagulant. The samples were then maintained at 4° C. for subsequent procedures. The total radioactivity in each total blood sample was counted. The samples were then centrifuged at 4° C. at 2200×g. Radioactivity of the serum and pellet measured and about 50% of the total radioactivity was retained in the pellet. The serum was transferred to a 1.5 ml Eppendorf tube containing about […] of 60% acetonitrile in water and centrifuged again to precipitate any residual proteins. The supernatant was analyzed using HPLC and examined for metabolites. HPLC was carried out on a C-18 Shimadzu 4.6×250 mm HPLC column and eluted under gradient conditions 80% A (pH 5.5 50 mM NaOAc):20% B (CH3CN) to 20% A:80% B at 1 ml/min. Radioactivity was detected using Packard Radiomatic FLO-One/beta detector equipped with a PET flow cell containing BGO (bismuthgermanate) windows.

Data set [3] deals with K562 (CML) tumor xenografts. Put plainly: microPET imaging of K562 xenograft. Format: in vivo, athymic nu/nu mice. Here is the method:
All animal studies were carried out within the framework of an institutional IACUC approved protocol (No. 86-02-020). Athymic nu/nu mice (National Cancer Institute, Bethesda, Md.) were inoculated subcutaneously onto the right shoulder with 1×10^7 K562 cells mixed with Matrigel (BD Biosciences, San Jose, Calif.). K562 is a chronic myelogenous leukemia cell line cultured with IMDM (Iscove's modified Dulbecco's medium; prepared in-house) containing 4 mM L-glutamine, 1.5 g/L sodium bicarbonate, and 10% fetal bovine serum.
Three weeks following tumor inoculation, PET images of mice were obtained using FOCUS 120 microPET™ scanner (Siemens Preclinical Solutions, Knoxyille, Tenn.) with [^18F]-5. Mice were injected intravenously (via tail vein) with 14±1 MBq (375±25 μCi) of [^18F]-5 and imaged 60 minutes later under 2% (at 1 L/min) isoflurane anesthesia (Forane, Baxter Healthcare, Deerfield, Ill.). Image acquisition time was 15 min (t=60 to 75 min) using a 250-750 keV energy window and a 6 nsec timing window. List-mode data were sorted into sinograms by Fourier re-binning and reconstructed by filter back-projection without attenuation correction. Count data in the reconstructed images were converted to activity concentration (i.e. % of the injected dose per gram (% ID/gm)) using a system calibration factor determined using a ^18F-filled mouse-sized phantom. Visualization and analyses of microPET images were carried out using AsiPRO™ software (Siemens Preclinical Solutions, Knoxyille, Tenn.).
In vivo results have been obtained in athymic mice bearing subcutaneous K562 (CML) tumor xenografts in the right shoulder. [^18F]-5 (14±1 MBq, 375±25 μCi) was injected through the tail vein and the subjects were imaged in a microPET scanner. […] Tracer activity was evident within the tumor xenograft (white arrow) and was determined to be 1.1% of the injected dose by ROI (region of interest) analysis. […] The transaxial image was taken at the level of the known palpable tumor as shown in the coronal section (broken line). The intensity of the radiotracer activity is color-graded as depicted by the colored scale.

The conditions of data set [4]: oral dasatinib therapy; cited from earlier work.
In a further data set the test system is M07e cells. The experiment in a line: Cellular proliferation, [3H]thymidine uptake, Kit ligand dependent growth. Format: cell-based. The note with it: Homo sapiens, M-07e, read-out: IC50, M07e cells proliferation. Here is the method: The immortalized human hematopoietic Philadelphia chromosome-positive cytokine independent R10(−) M07e^p210 cell line (46) was maintained in Iscove's modified Dulbecco's medium (Life Technologies, Inc., Grand Island, N.Y.) containing 10% FCS (Hyclone, Logan, Utah). The parental M07e megakaryoblastic cell line was a kind gift of Brian Druker and was maintained in the presence of 50 ng/mL kit ligand (SCF) as described (46-47) K562 was obtained from the ATCC. K562 was maintained in suspension in 90% RPMI 1640 medium supplemented with 10% FBS, 2 mM L-glutamine, 10 mM HEPES, 1 mM sodium pyruvate, 1.5 g/L sodium bicarbonate, 4.5 g/L […], 10% FBS, 100 IU/mL penicillin and 100 μg/ml streptomycin. Tumor cell cultures were maintained in a humidified atmosphere with 5% CO2 at 37° C. (NuAire).
. Data points for all assays were obtained in triplicate, and background incorporation from cell-free wells was determined and subtracted from all data points. The data was analyzed using a non-linear regression fit to a sigmoidal dose-response curve using Prism 4 (GraphPad Software, Inc).

T8 sequence (P41240 whole entry): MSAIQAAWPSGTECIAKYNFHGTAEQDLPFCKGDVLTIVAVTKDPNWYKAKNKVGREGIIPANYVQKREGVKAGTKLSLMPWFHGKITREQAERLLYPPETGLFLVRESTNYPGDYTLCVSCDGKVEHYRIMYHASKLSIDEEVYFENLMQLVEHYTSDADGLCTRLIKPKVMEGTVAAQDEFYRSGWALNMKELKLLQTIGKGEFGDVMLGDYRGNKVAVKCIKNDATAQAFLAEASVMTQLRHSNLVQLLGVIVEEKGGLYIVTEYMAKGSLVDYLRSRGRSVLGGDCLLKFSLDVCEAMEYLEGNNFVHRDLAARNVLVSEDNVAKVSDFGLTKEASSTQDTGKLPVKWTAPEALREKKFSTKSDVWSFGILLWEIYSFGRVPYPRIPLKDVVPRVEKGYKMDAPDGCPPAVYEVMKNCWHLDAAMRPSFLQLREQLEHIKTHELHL
T9 sequence (P54760 16-987): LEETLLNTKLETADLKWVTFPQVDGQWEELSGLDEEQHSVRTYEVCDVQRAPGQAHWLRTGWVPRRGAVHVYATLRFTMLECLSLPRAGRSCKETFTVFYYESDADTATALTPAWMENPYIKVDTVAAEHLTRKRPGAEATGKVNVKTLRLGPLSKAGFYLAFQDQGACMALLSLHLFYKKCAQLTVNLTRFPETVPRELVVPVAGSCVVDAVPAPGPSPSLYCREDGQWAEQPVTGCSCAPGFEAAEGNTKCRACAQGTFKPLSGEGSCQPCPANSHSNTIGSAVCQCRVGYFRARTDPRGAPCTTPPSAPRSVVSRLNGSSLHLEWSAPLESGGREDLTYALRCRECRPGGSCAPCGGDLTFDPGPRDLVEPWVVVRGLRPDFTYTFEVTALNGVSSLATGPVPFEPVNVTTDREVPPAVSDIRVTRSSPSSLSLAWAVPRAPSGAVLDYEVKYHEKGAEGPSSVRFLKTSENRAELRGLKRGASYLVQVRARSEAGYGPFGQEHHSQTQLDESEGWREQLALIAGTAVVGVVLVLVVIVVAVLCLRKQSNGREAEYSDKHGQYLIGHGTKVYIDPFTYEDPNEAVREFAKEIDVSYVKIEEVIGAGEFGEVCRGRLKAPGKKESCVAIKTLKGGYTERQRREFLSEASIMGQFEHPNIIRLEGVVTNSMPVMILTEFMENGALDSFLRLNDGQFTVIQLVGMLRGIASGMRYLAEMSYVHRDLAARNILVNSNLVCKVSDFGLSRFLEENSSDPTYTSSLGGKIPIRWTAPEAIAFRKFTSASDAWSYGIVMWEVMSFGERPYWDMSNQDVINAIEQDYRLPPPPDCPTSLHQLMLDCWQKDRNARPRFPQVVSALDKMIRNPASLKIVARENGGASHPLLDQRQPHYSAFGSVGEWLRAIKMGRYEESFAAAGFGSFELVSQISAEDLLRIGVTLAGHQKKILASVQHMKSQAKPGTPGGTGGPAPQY
T7 sequence (P29317 24-976): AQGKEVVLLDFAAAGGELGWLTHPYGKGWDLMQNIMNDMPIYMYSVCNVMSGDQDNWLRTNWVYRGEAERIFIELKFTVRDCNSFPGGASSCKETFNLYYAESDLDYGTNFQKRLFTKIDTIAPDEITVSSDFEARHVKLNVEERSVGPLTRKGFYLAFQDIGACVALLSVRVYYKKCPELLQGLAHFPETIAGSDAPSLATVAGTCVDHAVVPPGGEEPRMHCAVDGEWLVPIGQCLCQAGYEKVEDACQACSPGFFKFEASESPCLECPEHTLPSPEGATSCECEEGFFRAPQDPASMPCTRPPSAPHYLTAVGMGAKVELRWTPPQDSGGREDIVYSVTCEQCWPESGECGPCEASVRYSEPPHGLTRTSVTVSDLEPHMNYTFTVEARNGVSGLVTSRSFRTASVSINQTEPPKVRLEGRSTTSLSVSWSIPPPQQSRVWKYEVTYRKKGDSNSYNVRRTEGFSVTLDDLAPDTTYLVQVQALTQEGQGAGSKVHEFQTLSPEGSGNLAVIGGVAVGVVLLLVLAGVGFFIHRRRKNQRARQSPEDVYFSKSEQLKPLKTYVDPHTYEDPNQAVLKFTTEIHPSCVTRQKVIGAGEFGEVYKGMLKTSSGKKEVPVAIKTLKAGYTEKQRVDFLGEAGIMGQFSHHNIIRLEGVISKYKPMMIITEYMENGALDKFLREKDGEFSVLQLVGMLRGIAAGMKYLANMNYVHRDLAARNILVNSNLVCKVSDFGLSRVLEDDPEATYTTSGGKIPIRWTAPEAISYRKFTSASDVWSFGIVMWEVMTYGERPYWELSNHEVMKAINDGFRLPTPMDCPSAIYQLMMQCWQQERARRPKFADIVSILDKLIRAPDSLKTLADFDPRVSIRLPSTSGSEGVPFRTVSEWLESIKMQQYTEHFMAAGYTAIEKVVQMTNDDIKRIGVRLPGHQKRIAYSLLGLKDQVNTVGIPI
T3 sequence (P16234 550-1089 limits assumed): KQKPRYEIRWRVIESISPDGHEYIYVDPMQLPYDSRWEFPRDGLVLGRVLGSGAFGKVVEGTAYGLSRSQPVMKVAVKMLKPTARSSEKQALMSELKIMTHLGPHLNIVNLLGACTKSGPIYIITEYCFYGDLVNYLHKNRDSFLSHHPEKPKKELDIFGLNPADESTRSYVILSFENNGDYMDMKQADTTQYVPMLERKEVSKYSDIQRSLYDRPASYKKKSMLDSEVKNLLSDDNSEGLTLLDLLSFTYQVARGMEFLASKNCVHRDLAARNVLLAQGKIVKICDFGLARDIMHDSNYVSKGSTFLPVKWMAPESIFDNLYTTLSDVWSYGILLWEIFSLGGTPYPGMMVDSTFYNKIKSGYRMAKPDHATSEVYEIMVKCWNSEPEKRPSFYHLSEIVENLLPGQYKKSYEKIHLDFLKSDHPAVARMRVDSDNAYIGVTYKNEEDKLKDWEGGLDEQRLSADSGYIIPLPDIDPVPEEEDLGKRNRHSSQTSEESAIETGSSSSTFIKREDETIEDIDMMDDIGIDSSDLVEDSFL
Sequence of SRC (P12931 whole entry): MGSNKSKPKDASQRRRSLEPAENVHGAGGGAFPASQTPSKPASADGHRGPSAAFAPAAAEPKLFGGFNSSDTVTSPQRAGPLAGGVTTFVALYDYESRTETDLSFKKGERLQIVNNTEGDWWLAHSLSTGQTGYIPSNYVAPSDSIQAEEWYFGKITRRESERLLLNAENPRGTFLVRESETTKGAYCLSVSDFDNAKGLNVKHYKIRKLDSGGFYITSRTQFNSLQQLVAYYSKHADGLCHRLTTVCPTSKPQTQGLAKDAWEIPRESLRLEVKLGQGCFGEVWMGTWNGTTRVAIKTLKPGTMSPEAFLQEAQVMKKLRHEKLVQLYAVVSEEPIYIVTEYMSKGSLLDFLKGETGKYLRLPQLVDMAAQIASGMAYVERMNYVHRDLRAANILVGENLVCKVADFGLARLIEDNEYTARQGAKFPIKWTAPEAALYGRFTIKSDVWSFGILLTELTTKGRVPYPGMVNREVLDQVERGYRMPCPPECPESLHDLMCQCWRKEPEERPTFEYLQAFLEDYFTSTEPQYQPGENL
T6 sequence (Q07912 whole entry): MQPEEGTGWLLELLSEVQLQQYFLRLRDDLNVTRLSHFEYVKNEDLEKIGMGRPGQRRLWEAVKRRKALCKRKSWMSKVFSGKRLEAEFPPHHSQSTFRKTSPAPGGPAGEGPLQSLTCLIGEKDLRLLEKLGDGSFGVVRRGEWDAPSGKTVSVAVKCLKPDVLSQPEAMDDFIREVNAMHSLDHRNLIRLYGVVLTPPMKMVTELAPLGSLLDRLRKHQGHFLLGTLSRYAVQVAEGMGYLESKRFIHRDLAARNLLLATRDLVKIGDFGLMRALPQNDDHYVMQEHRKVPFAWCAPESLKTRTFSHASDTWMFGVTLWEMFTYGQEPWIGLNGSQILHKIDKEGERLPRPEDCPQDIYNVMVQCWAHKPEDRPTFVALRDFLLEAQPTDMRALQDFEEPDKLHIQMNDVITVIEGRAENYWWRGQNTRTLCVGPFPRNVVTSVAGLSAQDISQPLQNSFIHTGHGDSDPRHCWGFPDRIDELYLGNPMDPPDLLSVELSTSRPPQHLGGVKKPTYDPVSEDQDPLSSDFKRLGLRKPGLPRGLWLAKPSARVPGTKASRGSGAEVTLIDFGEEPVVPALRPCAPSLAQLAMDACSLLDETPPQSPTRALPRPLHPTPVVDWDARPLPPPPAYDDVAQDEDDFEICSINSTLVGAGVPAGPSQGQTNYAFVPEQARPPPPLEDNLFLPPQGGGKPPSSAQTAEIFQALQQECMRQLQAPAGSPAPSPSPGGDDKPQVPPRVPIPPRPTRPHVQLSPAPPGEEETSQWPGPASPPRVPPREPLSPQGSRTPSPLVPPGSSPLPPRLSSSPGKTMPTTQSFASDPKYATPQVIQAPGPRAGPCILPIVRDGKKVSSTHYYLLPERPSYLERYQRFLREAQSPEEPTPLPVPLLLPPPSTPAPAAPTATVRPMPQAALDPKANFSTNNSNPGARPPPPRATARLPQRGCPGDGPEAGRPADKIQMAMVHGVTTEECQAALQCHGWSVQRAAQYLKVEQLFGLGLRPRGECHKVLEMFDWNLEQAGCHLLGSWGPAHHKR

Take `CN[C@@H]1C[C@H]2O[C@@](C)([C@@H]1OC)n1c3ccccc3c3c4c(c5c6ccccc6n2c5c31)C(=O)NC4` [Staurosporine, reference compound]: at SRC (read-out: % Inhibition of Kinase Activity, SRC, Staurosporine at 3000 nM), the inhibition at 3 µM was 89.8%. In addition, the inhibition at 0.3 µM at TEC (read-out: % Inhibition of Kinase Activity, TEC) was found to be 92.5%; on MET, 90%; on CSK (read-out: % Inhibition of Kinase Activity, CSK) it was 89.3%. In addition, the inhibition at 0.003 µM at PDGFR— (read-out: % Inhibition of Kinase Activity, PDGFR—) is 88.4%; at FLT3, 96.4%; on JAK3 it was 95.3%. At ACK (read-out: % Inhibition of Kinase Activity, ACK), the inhibition at 0.03 µM is 96.4%. For the same molecule, the inhibition at 10 µM at EphA2 (read-out: % Inhibition of Kinase Activity, EphA2) worked out at 92.6%; at EphB4 (read-out: % Inhibition of Kinase Activity, EphB4) it was 94.1%. The molecule further yielded an inhibition at 1 µM on TYRO3 of 95.3%.

Take `Cc1nc(Nc2ncc(C(=O)Nc3c(C)cccc3Cl)s2)cc(N2CCN(CC[18F])CC2)n1` [[^18F]-5]: the “tumor uptake of tracer” value in data set [1] (H1975 right, H1975-DR left shoulder, before Dasatinib) is given as “tumor uptake is evident bilaterally”. The EC50 on SRC worked out at 2.6 nM; on ABL it was 0.6 nM; at TEC (Table 3), 1.9 nM; on PDGFR— (Table 3), 16 nM; on ACK (Table 3) it was 20 nM; on EphA2 (Table 3), 1.9 nM. For the same molecule, the EC50 at CSK (Table 3) came out at 5 nM; on EphB4 (Table 3), 3.1 nM; at EGFR it was 270 nM; on KIT, 1.3 nM; on FGFR1, 390 nM. Also, in data set [2] (mouse blood centrifuged at 2200 x g after i.v. injection), the “total blood radioactivity retained in the pellet” value is given as “about 50%”. Further, the “Peak 3 [18F]-5 (16.9 min) % Radioactivity, parent” value in data set [2] (30 min post injection) is listed as 31 ± 11%; in [2] (60 min post injection) it was 9 ± 3%; in data set [2] (120 min post injection, one trial only), 8%. Further, in data set [2] (two-hour time course, HPLC of plasma), the “metabolism in plasma over time course” value is on record as “metabolized significantly”. The “tracer activity within the tumor xenograft by ROI analysis” value in data set [3] (60 minutes after i.v. injection, one representative mouse) is given as 1.1 % of the injected dose. For the same molecule, the route of clearance result in [3] (microPET 60-75 min) is on record as “cleared via the hepatobiliary route predominantly”. Moreover, the uptake in bone entry in [3] (microPET 60-75 min) is recorded as “no significant uptake”. In data set [3] (mouse, in vivo), the “K562 tumor uptake in mice” value was “significant K562 tumor uptake”.

Consider `Cc1nc(Nc2ncc(C(=O)Nc3c(C)cccc3Cl)s2)cc(N2CCN(CCO)CC2)n1.O` [Dasatinib, N-(2-chloro-6-methylphenyl)-2-[[6-[4-(2-hydroxyethyl)-1-piperazinyl]-2-methyl-4-pyrimidinyl]amino]-5-thiazole carboxamide monohydrate, reference compound], for which the “patients with severe myelosuppression” value in data set [4] is more than 50%. Also, the “effect of unlabeled Dasatinib on [18F]-5 uptake” value in data set [1] (Dasatinib 30 mg/kg IP) is “competitive inhibition of tracer uptake in the tumors and organs”. Also, the IC50 in the data set on M07e cells was determined as 1.2 ± 0.8 nM.

In general, inhibition refers to how much of the control response was suppressed. As a reminder, the EC50 is the midpoint of the concentration-response curve. Higher therefore signals a less potent agent.

The values are drawn from US20100226853A1 (priority 2007, published 2010).
